For one series, the system named is phospho-JNK1. As to the kind of experiment: Western blot of phospho-JNK1 under ER stress, HT1080 cells. The settings on record: irestatins 2.5 μM, 2 hour preincubation; Tm 4 μg/ml, 1.5 hrs. Type of series: cell-based, human. The method, then: Cells (2×10^6) were cultured in 10-cm dishes, collected using a cell scraper at 4° C., and lysed by addition of 150 μl cell lysis buffer [50 mM Tris pH 7.4, 150 mM NaCl, 10% glycerol, 0.5% Triton X-100. 0.5% NP-40, 2 mM Na3VO4, 20 mM beta-glycerophosphate, 10 mM NaF, 1 mM DTT, 1 mM PMSF). Lysates were centrifuged for 5 min at 10,000×g, and proteins (˜40 μg) were resolved by SDS-PAGE followed by semi-dry transfer to nitrocellulose membranes. Membranes were blocked in TBS-5% milk supplemented with 0.1% Tween-20. The blots were then probed overnight with relevant antibodies, washed, and incubated for 2 hours with species-specific secondary antibodies conjugated to horseradish peroxidase. After washing in block solution, immunoreactive material was detected by enhanced chemiluminescence (SuperSignal West Dura Extended, Pierce, Inc., Rockville, Ill.).
HT1080 cells were exposed to DMSO vehicle (lane 1), irestatin 9389 (2.5 μM; lane 2) for 16 hours or Tm (5 μg/ml; lane 3) for 8 hours. Following treatments, cells were harvested, lysed, and analyzed by immunoblotting using anti-Grp78 antibody (top) or anti-actin (bottom) as a loading control. […] Cell lysates were analyzed by Western immunoblotting using anti-IRE1α (bottom) or anti-phospho-IRE1α antibodies (top). […] Lysates were analyzed by Western blot using antisera specific for phospho-JNK1 (top) or total JNK1 (bottom). […]
In general terms: In western blotting, separated proteins are transferred to a membrane and probed.

Series [1] relates to HT1080 s.c. tumor xenografts. Type of series: in vivo. The protocol:
Female 4-6 week-old SCID (B6.CB 17) mice supplied by Stanford University Animal Facility were housed in the same facility (American Association of Laboratory Animal Care-approved) with 12 hour light cycles. Food and water were provided ad libitum. All experiments were approved by the institutional care and use committee. The potential toxicities of irestatin 9389 were examined in SCID mice injected i.p. once daily over 4 consecutive days with increasing doses of irestatin 9389 or vehicle control. […] For xenografts, 2×10^6 HT1080 fibrosarcoma cells were resuspended in 50-75 μl PBS and injected s.c. in the dorsal flanks of host mice. When the implanted tumors reached a mean volume of ˜150 mm^3, mice were randomly assigned into different treatment groups. Mice were dosed by i.p. bolus injection with either vehicle (50% DMSO, 20% cremophor EL, 30% ethanol) or irestatin 9389 (50 mg/kg). Tumors (6-8 per group) were measured every 2-4 days with calipers. Tumor volume was calculated using the formula [(W^2×L) 0.52] where W=width and L=length.
A. Irestatin 9389 impairs IRE1α activity in implanted tumor xenografts. Equal numbers (2×10^6) of XBP-luciferase or CMV-luciferase reporter cells were implanted s.c. into SCID mice. After one week, mice were treated with irestatin 9389 (50 mg/kg), followed by optical bioluminescence imaging. B. Inhibition of tumor growth by irestatin 9389. HT1080 s.c. tumor xenografts were established in SCID mice and allowed to reach a mean volume of 150 mm^3 before treatment. Irestatin 9389 (50 mg/kg) or vehicle control was administered q 2d by i.p. injection and continued for 2 weeks, for a total of 6 doses. Tumor volumes were calculated based on caliper measurements taken every 3-5 days. Data points represent the mean volume calculated from at least 7 tumors per group, with SEM shown in one direction. Mean mouse weights+/−SEM are shown in bottom graph. C.
Next, we tested if treatment with irestatin 9389 could have a direct impact on tumor growth. […]

The results in this text go back to patent US20130150399A1, “INHIBITORS OF THE UNFOLDED PROTEIN RESPONSE AND METHODS FOR THEIR USE” (The Board of Trustees of the Leland Stanford Junior …, priority 2006, published 2013).

In the case of `Cc1csc(NC(=O)CSc2nc3c(c(C(F)(F)F)c2C#N)CCC3)n1` [Compound 9389], the “phosphorylation of JNK1 during Tm-induced ER stress” value with phospho-JNK1 is “failed to block the phosphorylation of JNK1”. Besides, the antitumor effects entry in series [1] (50 mg/kg i.p. every other day, 6 doses) is “significant cytostatic antitumor effects”. In addition, the mean tumor volume in series [1] (50 mg/kg i.p. every other day, 6 doses, one week after the last treatment, P<0.01) is listed as 480+/−210 mm^3. In series [1] (mouse, in vivo), the “weight loss compared to vehicle-treated mice” value is on record as “did not exhibit significant long-term weight loss”.
